Source: US20250282757A1, “ARYL ETHER-SUBSTITUTED HETEROCYCLIC COMPOUNDS AS GLP1R AGONISTS” (MINDRANK AI LTD., priority 2021, published 2025)

How the values were obtained:
GLP-1R = GLP-1R (Homo sapiens, UniProt P43220); assay: Agonist activity on GLP-1R, HTRF cAMP detection in stably transfected GLP-1R/HEK293 cells; type: cell-based
[1] = Pharmacokinetic study in mice; type: in vivo, CD-1 mice; details: for AUC(0-inf): read-out: AUC0-inf; for half-life: read-out: T½ (converted)
Method: The pharmacokinetic properties of some compounds of the present invention were evaluated in mice pharmacokinetic experiments. SPF male CD-1 mice from Beijing Vital River Laboratory Animal Technology Co., Ltd were used with 6 mice in each group. Compounds were dissolved in 10% solutol/90% saline. A single intravenous administration was given at a dose of 1 mg/kg in a volume of 1 mL/kg. A single intragastric administration was given at a dose of 5 mg/kg in a volume of 1 mL/kg. Animals were fasted overnight prior to the administration and resumed feeding 4 hours after administration, ad libitum to water. Blood was collected at 0.0830, 0.25, 0.5, 1, 2, 4, 6, 8 and 24 hours after dosing. About […] of whole blood was collected from the saphenous vein of animals and placed in an EDTA-K2 anticoagulation tube. The samples were centrifuged at 4° C. and 4200 rpm for 5 min, and the plasma was transferred into a centrifuge tube and stored at −80° C. until analysis. For plasma sample analysis, the test compounds and internal standards (Labetalol & tolbutamide & Verapamil & dexamethasone & glyburide & Celecoxib) were extracted from mice plasma by protein precipitation method with acetonitrile, and the extracts were analyzed by LC/MS/MS. The measured plasma concentration-time data of individual animals were analyzed with the non-compartmental model of Phoenix WinNonlin 7.0 (Pharsight, USA) software, and the pharmacokinetic parameters of mice were obtained as follows: maximum (peak) plasma drug concentration Cmax; Peak time Tmax; half-life T1/2 and area under the plasma concentration-time curve extrapolated to infinity AUC0-inf.

[2] = Pharmacokinetic study in monkeys; type: in vivo, cynomolgus monkeys; details: for AUC(0-inf): read-out: AUC0-inf; for half-life: read-out: T½ (converted)
Method: The pharmacokinetic properties of compounds of the present invention were evaluated in monkey pharmacokinetic experiments with 3 male Non-naive cynomolgus monkeys per group. Compounds were dissolved in 10% solutol/90% saline. For single intravenous administration, the dose was 1 mg/kg, and the administration volume was 1 mL/kg. For single intragastric administration, the dose was 5 mg/kg, and the administration volume was 1 mL/kg. Animals were fasted overnight with free water before the experiment and resumed feeding 4 hours after administration. Blood was collected at 0.0830, 0.25, 0.5, 1, 2, 4, 6, 8 and 24 hours after dosing. About 0.4 mL of whole blood was collected from the animal's forearm vein and placed in an EDTA-K2 anticoagulant tube. The samples were centrifuged at 4° C. and 4200 rpm for 5 min, and the plasma was transferred to a centrifuge tube and stored at −80° C. until analysis. For plasma sample analysis, the test compounds and internal standards (Labetalol & tolbutamide & Verapamil & dexamethasone & glyburide & Celecoxib) were extracted from monkey plasma by protein precipitation method with acetonitrile, and the extracts were analyzed by LC/MS/MS. Measured plasma concentration-time data in individual animals were analyzed using the non-compartmental model of Phoenix WinNonlin 7.0 (Pharsight, USA) software to obtain the following pharmacokinetic parameters: maximum (peak) plasma drug concentration Cmax; time to peak Tmax; Half-life T1/2 and area under the plasma concentration-time curve extrapolated to infinity AUC0-inf.

h-GLP1-R C57BL6J mice = assay: Intraperitoneal glucose tolerance (IPGTT) test in h-GLP1-R C57BL6J mice; type: in vivo
Method: The compounds to be tested were dissolved in 10% Solutol HS15+90% Saline, and vortexed by ultrasonic to dissolve.
Male SPF h-GLP1-R C57BL6J mice, 6-9 weeks old, weighing 20 g-25 g.
Upon arrival, animals were acclimated for 7 days before experiments. The body weight and random blood sugar of the animals were measured one day before administration. Animals were divided into 4 groups based on body weight and random blood glucose.
Mice were overnight fasted before IPGTT. Baseline fasting blood glucose and insulin level were measured before vehicle or compound dosing. 30 min post of compound dosing, glucose were injected intraperitoneally (2 g/kg, 10 ml/kg). Blood glucose levels were measured at −30, 0, 15, 30, 60, 120 min. Plasma 15 ul were collected at 0 and 15 min for insulin analysis by Rat/Mouse Insulin Elisa Kit.
AUC0-120min was the area under the blood glucose-time curve. Insulin change was the difference between 15 min and 0 min plasma insulin concentration. Statistical analysis of data was performed with Graphpad Prism 6, and the statistical method was one-way ANOVA Dunnett test. Compared with the vehicle group, p<0.05 was considered a significant difference. * means p<0.05, ** means p<0.01, *** means p<0.001.

cynomolgus monkeys = assay: Intravenous glucose tolerance (IVGTT) experiment in cynomolgus monkey; type: in vivo
Method: The compounds were dissolved in 10% Solutol HS15+90% Saline by vortex ultrasound. Vehicle was 10% Solutol HS15+90% Saline.
Male cynomolgus monkeys, 10-15 years old, weighing 6-13 kg. Healthy animals were selected for efficacy studies according to alanine aminotransferase (ALT), aspartate aminotransferase (AST), triglyceride (TG), total cholesterol (TC), high density lipoprotein (HDL), low density lipoprotein (LDL), glycosylated hemoglobin (HbA1c), body weight (BW).
After 1 week of acclimation, the IVGTT baseline before administration was measured, and the animals were grouped according to the insulin and blood glucose results of the IVGTT. The detailed information of treatment was as follows:
IVGTT was started after 2 hours post of compound dosing. Blood were collected-at −15 min, 0 min (before sugar administration), and 2, 5, 7, 10, 20, and 30 min after sugar administration. And the blood glucose level were measured.
Data was analyzed by Graphpad Prism 6 and the statistical method was one-way ANOVA Dunnett's test. Compared with the vehicle group, p<0.05 was considered significant difference. * means p<0.05, ** means p<0.01, *** means p<0.001.

[3] = mouse, plasma, male CD-1 mice, 1 mg/kg iv
[4] = mouse, plasma, male CD-1 mice, 5 mg/kg po
[5] = cynomolgus monkey, plasma, male cynomolgus monkeys, 1 mg/kg iv
[6] = cynomolgus monkey, plasma, male cynomolgus monkeys, 5 mg/kg po

Chain of GLP-1R (P43220 24-463): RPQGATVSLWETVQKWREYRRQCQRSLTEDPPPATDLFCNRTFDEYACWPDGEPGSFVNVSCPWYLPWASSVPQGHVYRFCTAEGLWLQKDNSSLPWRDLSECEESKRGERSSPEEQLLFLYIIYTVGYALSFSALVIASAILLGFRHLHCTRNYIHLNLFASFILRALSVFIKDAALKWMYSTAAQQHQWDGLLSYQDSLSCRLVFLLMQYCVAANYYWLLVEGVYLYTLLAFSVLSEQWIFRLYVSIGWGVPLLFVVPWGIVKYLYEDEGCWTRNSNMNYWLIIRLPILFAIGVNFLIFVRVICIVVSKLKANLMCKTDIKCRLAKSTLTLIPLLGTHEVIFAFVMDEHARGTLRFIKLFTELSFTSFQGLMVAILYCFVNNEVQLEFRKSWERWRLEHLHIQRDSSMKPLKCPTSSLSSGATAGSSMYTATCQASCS

Compound: N#Cc1ccc(OCc2cccc(OC3CCN(Cc4nc5ccc(C(=O)O)cc5n4C[C@@H]4CCO4)CC3)n2)c(F)c1 [Compound 55, (S)-2-((4-((6-((4-cyano-2-fluorophenoxy)methyl)pyridin-2-yl)oxy)piperidin-1-yl)methyl)-1-(oxetan-2-ylmethyl)-1H-benzo[d]imidazole-6-carboxylic acid]
- EC50 (GLP-1R; 30 min incubation): 149 pM
- Max activity (GLP-1R; relative to top concentration of reference GLP-1(7-37)): 111.5%
- F ([1]; male CD-1 mice, 5 mg/kg po): 32.7%
- clearance rate compared with PF-06882961 ([1]; mice): lower clearance rates
- exposure compared with PF-06882961 ([1]; mice): higher exposure
- clearance [1, 3]: 26.2 mL/min/kg
- AUC(0-inf) [1, 3]: 637 ng·h/mL
- half-life [1, 3]: 1.5 h
- Vd ([1]; mouse, plasma, male CD-1 mice, 1 mg/kg iv, read-out: Vdss): 1.3 L/kg
- AUC(0-inf) [1, 4]: 1040 ng·h/mL
- Cmax ([1]; mouse, plasma, male CD-1 mice, 5 mg/kg po, read-out: Cmax): 483 ng/mL
- half-life [1, 4]: 1.7 h
- clearance [2, 5]: 12 mL/min/kg
- AUC(0-inf) [2, 5]: 1420 ng·h/mL
- half-life [2, 5]: 2.2 h
- Vd ([2]; cynomolgus monkey, plasma, male cynomolgus monkeys, 1 mg/kg iv, read-out: Vdss): 0.4 L/kg
- AUC(0-inf) [2, 6]: 614 ng·h/mL
- Cmax ([2]; cynomolgus monkey, plasma, male cynomolgus monkeys, 5 mg/kg po, read-out: Cmax): 214 ng/mL
- half-life [2, 6]: 5.4 h
- F ([2]; male cynomolgus monkeys, 5 mg/kg po): 8.6%
- clearance rate compared with PF-06882961 ([2]; monkeys): lower clearance rates
- exposure compared with PF-06882961 ([2]; monkeys): higher exposure
- half-life compared with PF-06882961 ([2]; monkeys): greater
- Insulin change (15 min minus 0 min plasma insulin) (h-GLP1-R C57BL6J mice; 0.3 mpk po): significantly increase insulin secretion
- AUC0-120min (area under the blood glucose-time curve) (h-GLP1-R C57BL6J mice; 0.3 mpk po, compared with the vehicle group): significant difference compared with the vehicle group
- blood glucose during IPGTT (h-GLP1-R C57BL6J mice; single oral dose 0.3 mg/kg, glucose 2 g/kg ip 30 min after dosing): significantly reduced the blood glucose
- effect on blood glucose compared with PF-06882961 (cynomolgus monkeys; 100 mg/kg po, IVGTT): equivalent
- blood glucose level in IVGTT (cynomolgus monkeys; single oral dose of 100 mg/kg, IVGTT 2 hours after dosing): significantly lower the blood glucose level
